In ChEMBL document CHEMBL4680150, “Design, synthesis and biological evaluation of vincamine derivatives as potential pancreatic β-cells protective agents for the treatment of type 2 diabetes mellitus” (Eur J Med Chem, 2020):
Active and inactive are the calls of the source.

How the values were obtained:
[1] = test system: INS1(832/13); assay: Cytoprotective activity in rat INS-1 832/13 cells assessed as inhibition of STZ-induced apoptosis at 20 uM incubated for 24 hrs by MTT assay relative to control; assay type: functional
[2] = test system: INS1(832/13); assay: Cytoprotective activity in rat INS-1 832/13 cells assessed as inhibition of STZ-induced apoptosis incubated for 24 hrs by MTT assay; assay type: functional, cell-based; details: INS-1 832/13, 24 h
[3] = test system: INS-1 832/13; assay: Activation of PI3K/Akt signalling pathway in STZ-induced rat INS-1 832/13 cells assessed as increase in phosphorylation of FOX01 at Ser256 residue at 5 to 20 uM after 24 hrs by Western blot analysis; details: filed as activator, dose 5-20 µM
[4] = test system: INS1(832/13); assay: Potency index, ratio of vincamine EC50 to test compound EC50 for cytoprotective activity in rat INS-1 832/13 cells assessed as inhibition of STZ-induced apoptosis; assay type: functional
[5] = test system: INS1(832/13); assay: Cytoprotective activity against STZ-induced toxicity in rat INS-1 832/13 cells at 10 uM incubated for 24 hrs by MTT assay; assay type: functional, cell-based
[6] = test system: INS1(832/13); assay: Cytoprotective activity against STZ-induced toxicity in rat INS-1 832/13 cells assessed as mass of apoptotic cells at 20 uM by Annexin V-FITC staining based flow cytometric analysis (reference value: 40.8%); assay type: functional
[7] = test system: INS1(832/13); assay: Cytoprotective activity against STZ-induced toxicity in rat INS-1 832/13 cells assessed as mass of apoptotic cells at 5 uM by Annexin V-FITC staining based flow cytometric analysis (reference value: 40.8%); assay type: functional
[8] = test system: INS1(832/13); assay: Cytoprotective activity against STZ-induced toxicity in rat INS-1 832/13 cells assessed as mass of apoptotic cells at 10 uM by Annexin V-FITC staining based flow cytometric analysis (reference value: 40.8%); assay type: functional
[9] = test system: INS-1 832/13; assay: Activation of AKT in STZ-induced rat INS-1 832/13 cells assessed as increase in Akt phosphorylation at 5 to 20 uM after 24 hrs by AlphaLISA assay; details: filed as activator, dose 5-20 µM
[10] = test system: INS-1 832/13; assay: Activation of AKT in STZ-induced rat INS-1 832/13 cells assessed as increase in Akt phosphorylation at 5 to 20 uM after 24 hrs by Western blot analysis; details: filed as activator, dose 5-20 µM
[11] = test system: INS1(832/13); assay: Cytoprotective activity in rat INS-1 832/13 cells assessed as inhibition of STZ-induced apoptosis at 20 uM incubated for 24 hrs in presence of wortmannin by MTT assay; assay type: functional, cell-based
[12] = test system: INS-1 832/13; assay: Activation of AKT in STZ-induced rat INS-1 832/13 cells assessed as increase in Akt phosphorylation at 20 uM after 24 hrs in presence of wortmannin by Western blot analysis
[13] = test system: INS-1 832/13; assay: Activation of PI3K/Akt signalling pathway in STZ-induced rat INS-1 832/13 cells assessed as increase in phosphorylation of GSK3beta at Ser9 residue at 5 to 20 uM after 24 hrs by Western blot analysis; details: filed as activator, dose 5-20 µM
[14] = test system: INS-1 832/13; assay: Activation of PI3K/Akt signalling pathway in STZ-induced rat INS-1 832/13 cells assessed as decrease in caspase 9 protein expression at 5 to 20 uM after 24 hrs by Western blot analysis; details: filed as activator, dose 5-20 µM
[15] = test system: INS-1 832/13; assay: Activation of PI3K/Akt signalling pathway in STZ-induced rat INS-1 832/13 cells assessed as decrease in caspase 3 protein expression at 5 to 20 uM after 24 hrs by Western blot analysis; details: filed as activator, dose 5-20 µM
[16] = test system: INS-1 832/13; assay: Activation of PI3K/Akt signalling pathway in STZ-induced rat INS-1 832/13 cells assessed as decrease in cleaved-caspase 3 protein expression at 5 to 20 uM after 24 hrs by Western blot analysis; details: filed as activator, dose 5-20 µM
[17] = test system: INS-1 832/13; assay: Activation of PI3K/Akt signalling pathway in STZ-induced rat INS-1 832/13 cells assessed as decrease in Bim mRNA expression at 5 to 20 uM after 24 hrs by RT-PCR analysis; details: filed as activator, dose 5-20 µM
[18] = test system: INS-1 832/13; assay: Activation of PI3K/Akt signalling pathway in STZ-induced rat INS-1 832/13 cells assessed as decrease in p21 mRNA expression at 5 to 20 uM after 24 hrs by RT-PCR analysis; details: filed as activator, dose 5-20 µM
[19] = test system: INS1(832/13); assay: Cytoprotective activity against STZ-induced rat INS-1 832/13 cells assessed as increase in IRS2 protein expression at 5 to 20 uM after 24 hrs Western blot analysis; assay type: functional, cell-based; details: dose 5-20 µM
[20] = test system: INS1(832/13); assay: Cytoprotective activity against STZ-induced rat INS-1 832/13 cells assessed as increase in IRS2 mRNA expression at 5 to 20 uM after 24 hrs RT-PCR analysis; assay type: functional, cell-based; details: dose 5-20 µM

Compound: CCCCN(CCCC)C(=O)C1=C[C@]2(CC)CCCN3CCc4c(n1c1ccccc41)[C@@H]32
- Activity [1]: inactive

Compound: CCCCNC(=O)C1=C[C@]2(CC)CCCN3CCc4c(n1c1ccccc41)[C@@H]32
- Activity [1]: Active
- EC50 [2]: 9.4 µM

Compound: CCCOC(=O)C1=C[C@]2(CC)CCCN3CCc4c(n1c1ccccc41)[C@@H]32
- Activity [1]: Active
- EC50 [2]: 5.44 µM

Compound: CC[C@@]12C=C(COC(=O)c3ccccc3)n3c4c(c5ccccc53)CCN(CCC1)[C@H]42
- Activity [1]: inactive

Compound: CCNC(=O)OCC1=C[C@]2(CC)CCCN3CCc4c(n1c1ccccc41)[C@@H]32
- Activity [1]: Active
- EC50 [2]: 1.69 µM

Compound: CC[C@@]12C=C(C(=O)Nc3ccccc3)n3c4c(c5ccccc53)CCN(CCC1)[C@H]42
- Activity [1]: inactive

Compound: CCCCNC(=O)OCC1=C[C@]2(CC)CCCN3CCc4c(n1c1ccccc41)[C@@H]32
- Activity [1]: inactive

Compound: CC[C@@]12C=C(C(=O)NC(C)C)n3c4c(c5ccccc53)CCN(CCC1)[C@H]42
- Activity [1]: Active
- EC50 [2]: 10.8 µM

Compound: CCCN(CCC)C(=O)C1=C[C@]2(CC)CCCN3CCc4c(n1c1ccccc41)[C@@H]32
- Activity [1]: Active
- EC50 [2]: 7.1 µM

Compound: CC[C@@]12C=C(CNC(=O)C(C)C)n3c4c(c5ccccc53)CCN(CCC1)[C@H]42
- Activity [1]: Active
- EC50 [2]: 7.2 µM

Compound: CC[C@@]12C=C(C(N)=O)n3c4c(c5ccccc53)CCN(CCC1)[C@H]42
- Activity [1]: inactive
- EC50 [2]: 10.2 µM

Compound: CCC(=O)NCC1=C[C@]2(CC)CCCN3CCc4c(n1c1ccccc41)[C@@H]32
- Activity [1]: Active
- EC50 [2]: 3.02 µM

Compound: CCNC(=O)NCC1=C[C@]2(CC)CCCN3CCc4c(n1c1ccccc41)[C@@H]32
- Activity [1]: inactive

Compound: CC[C@@]12C=C(COC(=O)NCCO)n3c4c(c5ccccc53)CCN(CCC1)[C@H]42
- Activity [1]: Active
- EC50 [2]: 5.32 µM

Compound: CC[C@@]12C=C(C(=O)NC3CCCC3)n3c4c(c5ccccc53)CCN(CCC1)[C@H]42
- Activity [1]: Active
- EC50 [2]: 12.8 µM

Compound: CC[C@@]12C=C(C(=O)OC(C)C)n3c4c(c5ccccc53)CCN(CCC1)[C@H]42
- Activity [1]: Active
- EC50 [2]: 4.55 µM

Compound: CCCNCC1=C[C@]2(CC)CCCN3CCc4c(n1c1ccccc41)[C@@H]32
- Activity [1]: inactive

Compound: CC[C@@]12C=C(COC(=O)NC)n3c4c(c5ccccc53)CCN(CCC1)[C@H]42
- Activity [1]: Active
- EC50 [2]: 1.65 µM

Compound: CC[C@@]12C=C(CNC(=O)C3CC3)n3c4c(c5ccccc53)CCN(CCC1)[C@H]42
- Activity [1]: Active
- EC50 [2]: 4.4 µM

Compound: CC[C@@]12C=C(C(=O)OC)n3c4c(c5ccccc53)CCN(CCC1)[C@H]42 [APOVINCAMINE]
- Activity [1]: Active
- EC50 [2]: 5.03 µM

Compound: CC[C@@]12C=C(CNCc3ccccc3)n3c4c(c5ccccc53)CCN(CCC1)[C@H]42
- Activity [1]: inactive

Compound: CCCNC(=O)OCC1=C[C@]2(CC)CCCN3CCc4c(n1c1ccccc41)[C@@H]32
- Activity [1]: Active
- EC50 [2]: 5.85 µM

Compound: CC[C@@]12C=C(C(=O)NC)n3c4c(c5ccccc53)CCN(CCC1)[C@H]42
- Activity [1]: Active
- EC50 [2]: 0.66 µM

Compound: CC[C@@]12C=C(C(=O)N3CCOCC3)n3c4c(c5ccccc53)CCN(CCC1)[C@H]42
- Activity [1]: Active
- EC50 [2]: 10.9 µM

Compound: CC[C@@]12C=C(COC(=O)NCCCO)n3c4c(c5ccccc53)CCN(CCC1)[C@H]42
- Activity [1]: Active
- EC50 [2]: 9.05 µM

Compound: CC[C@@]12C=C(C(=O)Nc3ccc(OC)cc3)n3c4c(c5ccccc53)CCN(CCC1)[C@H]42
- Activity [1]: inactive

Compound: CC[C@@]12C=C(C(=O)N3CCCCC3)n3c4c(c5ccccc53)CCN(CCC1)[C@H]42
- Activity [1]: Active
- EC50 [2]: 4.89 µM

Compound: CC[C@@]12C=C(CNC)n3c4c(c5ccccc53)CCN(CCC1)[C@H]42
- Activity [1]: Active
- EC50 [2]: 1.6 µM

Compound: CC[C@@]12C=C(C(=O)NCCO)n3c4c(c5ccccc53)CCN(CCC1)[C@H]42
- Activity [1]: Active
- EC50 [2]: 0.96 µM

Compound: CCNC(=O)C1=C[C@]2(CC)CCCN3CCc4c(n1c1ccccc41)[C@@H]32
- Activity [1]: Active
- EC50 [2]: 0.2 µM

Compound: CCCCCNC(=O)C1=C[C@]2(CC)CCCN3CCc4c(n1c1ccccc41)[C@@H]32
- Activity [1]: inactive

Compound: CC[C@@]12C=C(COC(C)=O)n3c4c(c5ccccc53)CCN(CCC1)[C@H]42
- Activity [1]: Active
- EC50 [2]: 0.36 µM

Compound: CC[C@@]12C=C(COC(=O)C(C)C)n3c4c(c5ccccc53)CCN(CCC1)[C@H]42
- Activity [1]: Active
- EC50 [2]: 1.74 µM

Compound: CC[C@@]12C=C(CNC(N)=O)n3c4c(c5ccccc53)CCN(CCC1)[C@H]42
- Activity [1]: inactive

Compound: CC[C@@]12C=C(COC(=O)NC(C)C)n3c4c(c5ccccc53)CCN(CCC1)[C@H]42
- Activity [1]: Active
- EC50 [2]: 10.8 µM

Compound: CC[C@@]12C=C(C(=O)N3CCCC3)n3c4c(c5ccccc53)CCN(CCC1)[C@H]42
- Activity [1]: Active
- EC50 [2]: 13.2 µM

Compound: CCN(CC)C(=O)C1=C[C@]2(CC)CCCN3CCc4c(n1c1ccccc41)[C@@H]32
- Activity [1]: Active
- EC50 [2]: 11.5 µM

Compound: CCCC(=O)OCC1=C[C@]2(CC)CCCN3CCc4c(n1c1ccccc41)[C@@H]32
- Activity [1]: Active
- EC50 [2]: 3.77 µM

Compound: CC[C@@]12C=C(CNC(=O)c3ccccc3)n3c4c(c5ccccc53)CCN(CCC1)[C@H]42
- Activity [1]: inactive

Compound: CC[C@@]12C=C(CO)n3c4c(c5ccccc53)CCN(CCC1)[C@H]42
- Activity [3]: Active
- EC50 [2]: 0.22 µM
- Ratio EC50 [4]: 2
- Activity [5]: Active
- Activity [6]: 19.1%
- Activity [7]: 32%
- Activity [8]: 26.1%
- Activity [9]: Active
- Activity [10]: Active
- Activity [11]: inactive
- Activity [12]: inactive
- Activity [13]: Active
- Activity [14]: Active
- Activity [15]: Active
- Activity [16]: Active
- Activity [17]: Active
- Activity [18]: Active
- Activity [19]: Active
- Activity [20]: Active

Compound: CC[C@@]12C=C(C(=O)N(C)C)n3c4c(c5ccccc53)CCN(CCC1)[C@H]42
- Activity [1]: inactive

Compound: CC[C@@]12C=C(CNC(=O)NC)n3c4c(c5ccccc53)CCN(CCC1)[C@H]42
- Activity [1]: inactive

Compound: CCC(=O)OCC1=C[C@]2(CC)CCCN3CCc4c(n1c1ccccc41)[C@@H]32
- Activity [1]: Active
- EC50 [2]: 6.84 µM

Compound: CCCNC(=O)C1=C[C@]2(CC)CCCN3CCc4c(n1c1ccccc41)[C@@H]32
- Activity [1]: Active
- EC50 [2]: 0.37 µM

Compound: CCCC(=O)NCC1=C[C@]2(CC)CCCN3CCc4c(n1c1ccccc41)[C@@H]32
- Activity [1]: Active
- EC50 [2]: 8.7 µM

Compound: CC[C@@]12C=C(CNC(=O)Nc3ccccc3)n3c4c(c5ccccc53)CCN(CCC1)[C@H]42
- Activity [1]: inactive

Compound: CC[C@@]12C=C(C(=O)NCCCO)n3c4c(c5ccccc53)CCN(CCC1)[C@H]42
- Activity [1]: Active
- EC50 [2]: 10.2 µM

Compound: CC[C@@]12C=C(COC(N)=O)n3c4c(c5ccccc53)CCN(CCC1)[C@H]42
- Activity [1]: Active
- EC50 [2]: 8.75 µM

Compound: CC[C@@]12C=C(COC(=O)Nc3ccccc3)n3c4c(c5ccccc53)CCN(CCC1)[C@H]42
- Activity [1]: inactive

Compound: CC[C@@]12C=C(CN)n3c4c(c5ccccc53)CCN(CCC1)[C@H]42
- Activity [1]: Active
- EC50 [2]: 7.62 µM
